Experimental data taken from PubChem BioAssay AID2060912 (Molecular Pharmacology Branch, DTP, NCI, 2025).

System: HUVEC/MSC spheroids viability
Assay: Human HUVEC/MSC cell line growth inhibition [KRAS2];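 as to viability, T/C: percent of DMSO vehicle control luminescence so 100% = untreated viability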
Conditions: for IC50: curve of first compound; for viability, T/C: stronger effect = lower value
Method in brief: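 HUVEC + hMSC stromal spheroids only, no malignant cells; 37 °C, 5% CO2. Drugs singly and in pairs, half-log series down from clinical Cmax (max 10 microM if Cmax undetermined).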

[1] = second compound 0.00949 µM, first compound 0.0316 µM
[2] = second compound 0.00949 µM, first compound 0.1 µM
[3] = second compound 0.00949 µM, first compound 0.316 µM
[4] = second compound 0.00949 µM, first compound 1 µM
[5] = second compound 0.03 µM, first compound 0.0316 µM
[6] = second compound 0.03 µM, first compound 0.1 µM
[7] = second compound 0.03 µM, first compound 0.316 µM
[8] = second compound 0.03 µM, first compound 1 µM
[9] = second compound 0.0949 µM, first compound 0.0316 µM
[10] = second compound 0.0949 µM, first compound 0.1 µM
[11] = second compound 0.0949 µM, first compound 0.316 µM
[12] = second compound 0.0949 µM, first compound 1 µM
[13] = second compound 0.3 µM, first compound 0.0316 µM
[14] = second compound 0.3 µM, first compound 0.1 µM
[15] = second compound 0.3 µM, first compound 0.316 µM
[16] = second compound 0.3 µM, first compound 1 µM
[17] = second compound 0.949 µM, first compound 0.0316 µM
[18] = second compound 0.949 µM, first compound 0.1 µM
[19] = second compound 0.949 µM, first compound 0.316 µM
[20] = second compound 0.949 µM, first compound 1 µM
[21] = second compound 3 µM, first compound 0.0316 µM
[22] = second compound 3 µM, first compound 0.1 µM
[23] = second compound 3 µM, first compound 0.316 µM
[24] = second compound 3 µM, first compound 1 µM
[25] = second compound 0.00949 µM, first compound 0.00316 µM
[26] = second compound 0.00949 µM, first compound 0.01 µM
[27] = second compound 0.03 µM, first compound 0.00316 µM
[28] = second compound 0.03 µM, first compound 0.01 µM
[29] = second compound 0.0949 µM, first compound 0.00316 µM
[30] = second compound 0.0949 µM, first compound 0.01 µM
[31] = second compound 0.3 µM, first compound 0.00316 µM
[32] = second compound 0.3 µM, first compound 0.01 µM
[33] = second compound 0.949 µM, first compound 0.00316 µM
[34] = second compound 0.949 µM, first compound 0.01 µM
[35] = second compound 3 µM, first compound 0.00316 µM
[36] = second compound 3 µM, first compound 0.01 µM

CC1(C)CCC(CN2CCN(c3ccc(C(=O)NS(=O)(=O)c4ccc(NCC5CCOCC5)c([N+](=O)[O-])c4)c(Oc4cnc5[nH]ccc5c4)c3)CC2)=C(c2ccc(Cl)cc2)C1 + C=CC(=O)N1CCN(c2nc(OCC3CCCN3C)nc3c2CCN(c2cccc4cccc(C)c24)C3)CC1CC#N was tested, and the IC50 (second compound 0.00949 µM) was 5120 nM, the IC50 (second compound 0.03 µM) was 4760 nM and the IC50 (second compound 0.0949 µM) was 4680 nM. The IC50 (second compound 0.3 µM) was 3930 nM, the IC50 (second compound 0.949 µM) was 3550 nM and the IC50 (second compound 3 µM) was 3410 nM. It also gave a viability, T/C [1] of 105%, a viability, T/C [2] of 86.2% and a viability, T/C [3] of 96.9%. For the same compound, the viability, T/C [4] was 91.4%, the viability, T/C (second compound 0.00949 µM, first compound 3.16 µM) was 83.5% and the viability, T/C (second compound 0.00949 µM, first compound 10 µM) was 3.48%. The viability, T/C [5] was 99.3%, the viability, T/C [6] was 92% and the viability, T/C [7] was 111%. The viability, T/C [8] was 94.4%, the viability, T/C (second compound 0.03 µM, first compound 3.16 µM) was 76% and the viability, T/C (second compound 0.03 µM, first compound 10 µM) was 3.1%. The viability, T/C [9] was 83.1%, the viability, T/C [10] was 103% and the viability, T/C [11] was 84.1%. For the same compound, the viability, T/C [12] was 94.6%, the viability, T/C (second compound 0.0949 µM, first compound 3.16 µM) was 75.1% and the viability, T/C (second compound 0.0949 µM, first compound 10 µM) was 1.65%. It also gave a viability, T/C [13] of 73.4%, a viability, T/C [14] of 75.9% and a viability, T/C [15] of 78.7%. The viability, T/C [16] was 96.8%, the viability, T/C (second compound 0.3 µM, first compound 3.16 µM) was 61.3% and the viability, T/C (second compound 0.3 µM, first compound 10 µM) was 1.21%. For the same compound, the viability, T/C [17] was 67.6%, the viability, T/C [18] was 80.8% and the viability, T/C [19] was 72%. It also gave a viability, T/C [20] of 87.5%, a viability, T/C (second compound 0.949 µM, first compound 3.16 µM) of 55.3% and a viability, T/C (second compound 0.949 µM, first compound 10 µM) of 3.31%. It also gave a viability, T/C [21] of 81%, a viability, T/C [22] of 86.1% and a viability, T/C [23] of 94.8%. It also gave a viability, T/C [24] of 71.2%, a viability, T/C (second compound 3 µM, first compound 3.16 µM) of 54.7% and a viability, T/C (second compound 3 µM, first compound 10 µM) of 0.24%.

Work on CCN1CCN(Cc2ccc(Nc3ncc(F)c(-c4cc(F)c5nc(C)n(C(C)C)c5c4)n3)nc2)CC1 + C=CC(=O)N1CCN(c2nc(OCC3CCCN3C)nc3c2CCN(c2cccc4cccc(C)c24)C3)CC1CC#N yielded an IC50 (second compound 0.00949 µM) greater than 1000 nM, an IC50 (second compound 0.03 µM) greater than 1000 nM and an IC50 (second compound 0.0949 µM) greater than 1000 nM. It also gave an IC50 (second compound 0.3 µM) greater than 1000 nM, an IC50 (second compound 0.949 µM) greater than 1000 nM and an IC50 (second compound 3 µM) greater than 1000 nM. It also gave a viability, T/C [25] of 98.1%, a viability, T/C [26] of 94.3% and a viability, T/C [1] of 82.5%. For the same compound, the viability, T/C [2] was 83.7%, the viability, T/C [3] was 98.7% and the viability, T/C [4] was 149%. It also gave a viability, T/C [27] of 80.7%, a viability, T/C [28] of 75.4% and a viability, T/C [5] of 97.9%. The viability, T/C [6] was 84.2%, the viability, T/C [7] was 111% and the viability, T/C [8] was 142%. The viability, T/C [29] was 94.6%, the viability, T/C [30] was 82% and the viability, T/C [9] was 84.1%. The viability, T/C [10] was 98.7%, the viability, T/C [11] was 113% and the viability, T/C [12] was 146%. For the same compound, the viability, T/C [31] was 74.5%, the viability, T/C [32] was 89% and the viability, T/C [13] was 86.8%. It also gave a viability, T/C [14] of 81.3%, a viability, T/C [15] of 115% and a viability, T/C [16] of 126%. It also gave a viability, T/C [33] of 85.4%, a viability, T/C [34] of 64.5% and a viability, T/C [17] of 77.2%. It also gave a viability, T/C [18] of 79.2%, a viability, T/C [19] of 112% and a viability, T/C [20] of 161%. The viability, T/C [35] was 97.8%, the viability, T/C [36] was 85.2% and the viability, T/C [21] was 97.9%. For the same compound, the viability, T/C [22] was 109%, the viability, T/C [23] was 158% and the viability, T/C [24] was 106%.

With Cn1ncnc1[C@H]1c2n[nH]c(=O)c3cc(F)cc(c23)N[C@@H]1c1ccc(F)cc1 + C=CC(=O)N1CCN(c2nc(OCC3CCCN3C)nc3c2CCN(c2cccc4cccc(C)c24)C3)CC1CC#N the IC50 (second compound 0.00949 µM) was greater than 100 nM, the IC50 (second compound 0.03 µM) was greater than 100 nM and the IC50 (second compound 0.0949 µM) was greater than 100 nM. The IC50 (second compound 0.3 µM) was greater than 100 nM, the IC50 (second compound 0.949 µM) was greater than 100 nM and the IC50 (second compound 3 µM) was greater than 100 nM. For the same compound, the viability, T/C (second compound 0.00949 µM, first compound 0.000316 µM) was 88%, the viability, T/C (second compound 0.00949 µM, first compound 0.001 µM) was 103% and the viability, T/C [25] was 85.6%. It also gave a viability, T/C [26] of 66.3%, a viability, T/C [1] of 84.8% and a viability, T/C [2] of 85.2%. The viability, T/C (second compound 0.03 µM, first compound 0.000316 µM) was 96.5%, the viability, T/C (second compound 0.03 µM, first compound 0.001 µM) was 75.2% and the viability, T/C [27] was 77.3%. The viability, T/C [28] was 77.9%, the viability, T/C [5] was 95.6% and the viability, T/C [6] was 86.4%. For the same compound, the viability, T/C (second compound 0.0949 µM, first compound 0.000316 µM) was 86.7%, the viability, T/C (second compound 0.0949 µM, first compound 0.001 µM) was 100% and the viability, T/C [29] was 75%. For the same compound, the viability, T/C [30] was 81.2%, the viability, T/C [9] was 82.6% and the viability, T/C [10] was 78.6%. It also gave a viability, T/C (second compound 0.3 µM, first compound 0.000316 µM) of 78.3%, a viability, T/C (second compound 0.3 µM, first compound 0.001 µM) of 90.9% and a viability, T/C [31] of 75.7%. The viability, T/C [32] was 71.9%, the viability, T/C [13] was 72.7% and the viability, T/C [14] was 86.2%. It also gave a viability, T/C (second compound 0.949 µM, first compound 0.000316 µM) of 61.8%, a viability, T/C (second compound 0.949 µM, first compound 0.001 µM) of 74.2% and a viability, T/C [33] of 78.8%. It also gave a viability, T/C [34] of 65.7%, a viability, T/C [17] of 74.9% and a viability, T/C [18] of 63.1%. It also gave a viability, T/C (second compound 3 µM, first compound 0.000316 µM) of 96.7%, a viability, T/C (second compound 3 µM, first compound 0.001 µM) of 80.2% and a viability, T/C [35] of 88.3%. It also gave a viability, T/C [36] of 88.5%, a viability, T/C [21] of 77.6% and a viability, T/C [22] of 83.9%.
